{
  "source": "patent US11414377B2",
  "about": "“Modulator of metabotropic and ionotropic transmembrane receptors and use thereof” (IBD THERAPEUTICS LLC, priority 2018, dated 2022)",
  "key": {"[1]": {"tested_on": "male balb/c mice", "test": "Motility of the gastrointestinal tract in vivo (activated carbon transit)", "settings": "intact 73.8 ± 3.7", "experimental": "The effect of Compound I on the motility of the GIT was studied by a standard procedure (Li Y. Y., Li Y. N., Ni J. B., Chen C. J., Lv S., Chai S. Y., Wu R. H., Yüce B., Storr M. Involvement of cannabinoid-1 and cannabinoid-2 receptors in septic ileus//Neurogastroenterol Motil. 2010. V. 22. P. 350-388). The study was carried out on male balb/c mice, the individual weight of which deviates from the mean value within the sex of no more than ±20%. The animals were given the intragastric administration of a solution of activated carbon (50 mg/ml, in 10 ml/kg) and the rate (in minutes) of the movement of the activated carbon on the intestine of animals was evaluated. Compounds I was administered once intragastrically 1 hour prior to administration of activated carbon. As the comparative preparations, hyoscin butyl bromide (Buscopan) at a dose of 3 mg/kg, trimebutine (Trimedat) at a dose of 33 mg/kg, mebeverine (Duspatalin) at a dose of 30 mg/kg were used. The obtained data were checked using the Grubb's test for the presence of the largest or smallest abnormal observation (ejection) in the sample. Values determined “to be eliminated” in this test were not used for further assay. For all data, descriptive statistics was used: a mean value (M) and standard error of the mean value (m) were counted up. The normality of distribution of the values obtained in the course of the experiment was checked with the aid of the Kolmogorov-Smirnov test. In the case of normal distribution, Student's t-test (t-test) was used to evaluate the inter-group distinctions. In the case of the distribution that is other than the normal one for the comparison of several groups, the Kruskall-Wallis test (with Dann's post hoc test) was used. Distinctions were determined at 5% at a level of confidence."}, "[2]": {"tested_on": "female balb/c mice", "test": "Oxazolone-induced inflammatory bowel disease model", "type": "in vivo", "settings": "10 mg/kg, 1, 25 and 49 hours after oxazolone, scored at 72 hours, control 2.00 ± 0.21", "experimental": "The study of the activity of Compound I on the oxazolone-induced inflammatory bowel disease model (ulcerative Colitis and Crohn's disease model) was carried out by means of a standard procedure (Heller F., Fuss I. J., Nieuwenhuis E. E., Blumberg R. S., Strober W. Oxazolone colitis, a Th2 colitis model resembling ulcerative colitis, is mediated by IL-13-producing NK-T cells//Immunity. 2002. P. 629-638).\nThe study was carried out on female balb/c mice. A 3.5 F catheter was introduced into the large intestine to a depth of 3-4 cm. Then, 150 μl of 1% oxazolone solution in 50% ethanol was slowly introduced into the colon lumen, the catheter was slowly removed and the mouse was kept in a vertical position (upside down) for 60 seconds to avoid the introduced solution flowing-out. Experimental animals were returned to the cages and the animal was kept in the warm. Compound I was administered intragastrically, three times: 1 hour, 25 hours and 49 hours after the rectal administration of oxazolone. 72 hours later after the rectal administration of oxazolone, the macroscopic assessment of intestinal wall damage is carried out with the help of score scale: 0 points—no lesions, 1 point—hyperemia, no ulcers, 2 points—hyperemia and thickening of the intestinal wall, no ulcers, 3 points—one ulcer without thickening of the intestine wall, 4 points—2 or more of the site of ulceration or inflammation, 5 points—2 or more severe sites of ulcerations and inflammation, or one site of ulceration/inflammation affecting >1 cm in length of the intestine, 6-10 points—the lesion affects >2 cm in length of the intestine, the score increases by 1 point per each 1 cm that is damaged.\nFor all data, descriptive statistics is applied: the arithmetic mean (M) and the standard error of the mean (m) are counted up. The normality of distribution of the values obtained in the course of the experiment was checked with the aid of the Shapiro-Wilk test. […] Distinctions were determined at 5% at a level of confidence."}},
  "data": [
    {"molecule": "CCCC[N+]1(C)[C@@H]2C[C@@H](OC(=O)[C@H](CO)c3ccccc3)C[C@H]1[C@@H]1O[C@@H]12", "note": "(stereo partly shown) [Hyoscine butyl bromide, hyoscin butyl bromide, reference compound]", "values": [
      {"measurement": "The time of ejection of activated carbon", "setting": "[1]; 3 mg/kg once intragastrically 1 hour prior to activated carbon", "value": "87.6 ± 4.75", "unit": "min"}
    ]},
    {"molecule": "CCN(CCCCOC(=O)c1ccc(OC)c(OC)c1)C(C)Cc1ccc(OC)cc1", "note": "(stereo not shown) [Mebeverine, mebeverine, reference compound]", "values": [
      {"measurement": "The time of ejection of activated carbon", "setting": "[1]; 30 mg/kg once intragastrically 1 hour prior to activated carbon", "value": "114.5 ± 12.22", "unit": "min"}
    ]},
    {"molecule": "C[C@]12C=CC(=O)C=C1CC[C@@H]1[C@@H]2[C@@H](O)C[C@@]2(C)[C@H]1CC[C@]2(O)C(=O)CO", "note": "[Prednisolone, reference compound]", "values": [
      {"measurement": "The degree of colon wall damage", "setting": "[2]", "value": "1.40 ± 0.37", "unit": "points"}
    ]},
    {"molecule": "CCC(COC(=O)c1cc(OC)c(OC)c(OC)c1)(c1ccccc1)N(C)C", "note": "(stereo not shown) [Trimebutine, trimebutine, reference compound]", "values": [
      {"measurement": "The time of ejection of activated carbon", "setting": "[1]; 33 mg/kg once intragastrically 1 hour prior to activated carbon", "value": "110.8 ± 6.52", "unit": "min"}
    ]}
  ]
}
